Data taken from US6271242A, “Method for treating cancer using a tyrosine protein kinase inhibitor” (Bristol-Myers Squibb Co., priority 1992, dated 2001).
Entries after “also recorded” stand apart in the source; their conditions may differ.

How the values were obtained:
[1] = tested on: NIH3T3 cells co-transfected with pFRK44 (gp145^trkB) and pLL42 (BDNF); assay: Focus formation of NIH3T3 cells co-transfected with gp145^trkB and BDNF plasmids; assay type: cell-based; conditions: 100 nM K252a
[2] = tested on: B38-941 cells; assay: Reversion of morphologic transformation, trk5-transformed NIH3T3 cells; assay type: cell-based; conditions: 100 nM K252a, as little as 36 hours
[3] = tested on: PC12 cells; assay: Proliferation of PC12 cells; assay type: cell-based, rat; conditions: submicromolar concentrations; data not shown
[4] = tested on: C74-321 cells; assay: Morphology and toxicity, v-src-transformed NIH3T3 cells; assay type: cell-based
[5] = as above; assay type: cell-based; conditions: mouse, v-src transformed nih3t3 cells; v-src transformed cells, no signs of morphologic reversion; data not shown; read-out: concentration at which toxic effect appears
[6] = tested on: human EGF receptor; assay: EGF-induced tyrosine phosphorylation of EGF receptor in F19-91 cells (Western blot); assay type: cell-based; conditions: 100 nM K252a, 100 ng/ml EGF
[7] = tested on: gp140^trk; assay type: cell-based, rat; conditions: 100 nM K252a, 100 ng/ml NGF, PC12 cells
[8] = tested on: Z82-711 cells; assay: Reversion of transformed phenotype, gp145^trkC + NT-3 transformed NIH3T3 cells; assay type: cell-based
[9] = tested on: Z99-541 cells; assay: Reversion of transformed phenotype, gp140^trk + NGF transformed NIH3T3 cells; assay type: cell-based
[10] = tested on: PDGF receptor; assay: PDGF-induced tyrosine phosphorylation of PDGF receptor in NIH3T3 cells (Western blot); assay type: cell-based; conditions: 100 nM K252a, 100 ng/ml PDGF
[11] = tested on: NIH3T3 cells co-transfected with pFL20 (gp145^trkC) and pLL43 (NT-3); assay: Focus formation of NIH3T3 cells co-transfected with gp145^trkC and NT-3 plasmids; assay type: cell-based; conditions: 100 nM K252a; pFL20 (gp145^trkC) + pLL43 (NT-3)
[12] = tested on: NIH3T3 cells; assay: Toxicity and growth of untransfected NIH3T3 and NIH3T3-derived cells
[13] = tested on: pp60^v-src; assay: In vitro tyrosine protein kinase assay of pp60^v-src immunoprecipitates (C74-321 cells); assay type: biochemical; conditions: concentrations as high as 10 μM
[14] = tested on: gp145^trkC; assay: NT-3-induced tyrosine phosphorylation of gp145^trkC in R4-31 cells (Western blot); assay type: cell-based; conditions: 100 nM K252a, 100 ng/ml NT-3, R4-31 (RA-31) cells
[15] = tested on: 106-632 cells; assay: Reversion of morphologic transformation, trk-transformed NIH3T3 cells; assay type: cell-based; conditions: 100 nM K252a, as little as 36 hours
[16] = tested on: Z82-432 cells; assay: Reversion of transformed phenotype, gp145^trkB + BDNF transformed NIH3T3 cells; assay type: cell-based
[17] = Morphology and toxicity, v-fms-transformed NIH3T3 cells; assay type: cell-based; conditions: mouse, v-fms transformed nih3t3 cells; v-fms transformed cells, no signs of morphologic reversion; data not shown; read-out: concentration at which toxic effect appears
[18] = tested on: C51-642 cells; assay: as above; assay type: cell-based
[19] = tested on: PC12 cells; assay: FGF-induced neurite formation of PC12 cells; assay type: cell-based, rat; conditions: concentrations as high as 300 nM; 50 ng/ml acidic and basic FGFs, three days
[20] = tested on: NIH3T3 cells co-transfected with pDM69 (gp140^trk) and pLTRSNGF (NGF); assay: Focus formation of NIH3T3 cells co-transfected with gp140^trk and NGF plasmids; assay type: cell-based; conditions: 100 nM K252a
[21] = tested on: PC12 cells; assay: NGF-induced neuronal differentiation (neurite outgrowth) of PC12 cells; assay type: cell-based; conditions: Rattus norvegicus, PC-12, 72 h; 50 ng/ml NGF, three days; read-out: IC50, block of appearance of neuritic processes in PC12 cells exposed to NGF
[22] = tested on: gp145^trkB; assay: BDNF-induced tyrosine phosphorylation of gp145^trkB in Z52-17 cells (Western blot); assay type: cell-based; conditions: 100 nM K252a, 100 ng/ml BDNF
[23] = tested on: pp60^v-src; assay: Tyrosine phosphorylation of pp60^v-src in C74-321 cells (Western blot); assay type: cell-based; conditions: concentrations as high as 1 μM

SMILES: COC(=O)[C@@]1(O)C[C@H]2O[C@]1(C)n1c3ccccc3c3c4c(c5c6ccccc6n2c5c31)C(=O)NC4 (single isomer, unassigned) [K252a, (8R*,9S*,11S*)-(-)-9-hydroxy-9-methoxycarbonyl-8-methyl-2,3,9,10-tetrahydro-8,11-epoxy-1H,8H,11H-2,7b,11a-triazadibenzo(a,g) cycloocta(c,d,e)triinden-1-one]
- Transforming Activity [1]: 0 Foci per 10^5 cells
- reversion of transformed phenotype [2]: completely reverted
- inhibitory effect on proliferation of PC12 cells [3]: did not have a significant inhibitory effect
- effect on morphology of v-src transformed cells [4]: no effect
- effect on transformed phenotype of v-src cells ([4]; concentrations as high as 1 μM): no effect
- MCC [5]: ~1000 nM
- phosphorylation on tyrosine residues of the EGF receptor [6]: no effect
- NGF-induced phosphorylation of gp140^trk on tyrosine residues [7]: completely abolished
- reversion of transformed phenotype ([8]; 30 nM K252a, data not shown): much more limited effect
- reversion of transformed phenotype ([8]; 100 nM K252a, 2 to 4 days): completely reverted
- reversion of transformed phenotype ([9]; 30 nM K252a, data not shown): much more limited effect
- reversion of transformed phenotype ([9]; 100 nM K252a, 2 to 4 days): completely reverted
- phosphorylation on tyrosine residues of the PDGF receptor [10]: no effect
- Transforming Activity [11]: 0 Foci per 10^5 cells
- effect on growth properties / proliferation rate of the cells ([12]; 300 nM or lower): not observed; also recorded: no significant effect
- detectable toxic effects ([12]; concentrations as high as 300 nM, NIH3T3-derived cells): nor elicit any detectable toxic effects
- toxicity to cells ([12]; micromolar concentrations, particularly untransfected NIH3T3 cells, data not shown): considerably toxic
- inhibitory effect on catalytic activity of pp60^v-src [13]: did not have any significant inhibitory effect
- phosphorylation on tyrosine residues of ligand-activated gp145^trkC [14]: completely abolished
- reversion of transformed phenotype [15]: completely reverted
- reversion of transformed phenotype ([16]; 30 nM K252a, data not shown): much more limited effect
- reversion of transformed phenotype ([16]; 100 nM K252a, 2 to 4 days): completely reverted
- MCC [17]: ~1000 nM
- effect on morphology of v-fms transformed cells [18]: no effect
- effect on transformed phenotype of v-fms cells ([18]; concentrations as high as 1 μM): no effect
- effect on induction of neurite formation by FGF [19]: no detectable effect
- Transforming Activity [20]: 0 Foci per 10^5 cells
- IC50 [21]: ~40 nM
- phosphorylation on tyrosine residues of ligand-activated gp145^trkB [22]: completely abolished
- inhibitory effect on levels of tyrosine phosphorylation of pp60^v-src [23]: did not have any inhibitory effect
